Measured values taken from publication PMC5731860, “Novel allylated monocarbonyl analogs of curcumin induce mitotic arrest and apoptosis by reactive oxygen species-mediated endoplasmic reticulum stress and inhibition of STAT3” (Oncotarget, 2017).
Each block holds one compound with its values, some of them ahead of it.

Assays:
[1] = system: GES-1; experiment: MTT assay, growth inhibition in normal gastric epithelial cells; assay type: cell-based, human; settings: for inhibition of the normal epithelial cells (selective cytotoxicity in cancer cell lines), in words: 20 μM, 24 h; for inhibition at 20 µM: Homo sapiens, GES1, 24 h, normal gastric epithelial cells
Protocol: (§1) First, we investigated whether allylated MAC alter the viability or have cytotoxic effects on cells in culture. We have performed MTT tetrazolium reduction assay following exposure of cancer cells (gastric cancer, BGC823 and SGC-7901; colon cancer, HT-29, HCT-116 and SW-480) and normal gastric epithelial cells (GES-1) to all 20 allylated MAC at a concentration of 20 μM for 24 h. […] In addition, we also found notable solubility and stability profile of these compounds (Supplementary Figure 1).
(§2) Cells were plated at a density of 8 × 10^3 cells/well in 96-well plates and allowed to attach overnight. Stock solutions of allylated MAC and curcumin were prepared in DMSO and diluted in culture media to obtain appropriate concentration. Cells were treated for 24 h and 48 h, following which, 20 μL of 5 mg/ml MTT reagent was added. Purple formazan product was dissolved by the addition of 100 μL DMSO to each well. Absorbance was then monitored at 490 nm using a plate reader (Molecular Device Spectra MAX190, USA). Percentage of cytotoxicity was determined using the following formula: Growth inhibition (%) = (OD of control−OD of test/OD of control×100%).

[2] = system: HCT-116; experiment: MTT assay, growth inhibition; assay type: cell-based, human; settings: for % Of growth inhibition HCT-116: 20 μM, 24 h; for inhibition at 20 µM: Homo sapiens, HCT-116, 24 h
Protocol: as §1, §2

[3] = system: SW-480; experiment: MTT assay, growth inhibition; assay type: cell-based, human; settings: for inhibition at 20 µM: Homo sapiens, SW480, 24 h; for % Of growth inhibition SW-480: 20 μM, 24 h
Protocol: as §1, §2

[4] = system: HT-29; experiment: MTT assay, growth inhibition; assay type: cell-based; settings: Homo sapiens, HT-29, 24 h
Protocol: as §1, §2

[5] = system: BGC-823; experiment: MTT assay, growth inhibition / cell viability; assay type: cell-based; settings: Homo sapiens; for inhibition at 20 µM: BGC-823, 20 μM, 24 h
Protocol: as §1, §2

[6] = system: SGC-7901; experiment: MTT assay, growth inhibition / cell viability; assay type: cell-based; settings: Homo sapiens; for inhibition at 20 µM: 24 h
Protocol: as §1, §2

[7] = Body weight of xenograft mice; assay type: in vivo; settings: 0–12 days, ip once a day; CA10 10 and 20 mg/kg, curcumin 50 mg/kg
From the text: (§3) All animal experiments complied with the Wenzhou Medical University's Policy on the Care and Use of Laboratory Animals. Protocols for animal studies were approved by the Wenzhou Medical University Animal Policy and Welfare Committee (Approved documents: 2016/201). Athymic BALB/c nu/nu female mice weighing 20–22 g (6 weeks old) were purchased from Vital River Laboratories (Beijing, China). Animals were housed (6 animals/gage) at a constant room temperature with a 12/12-hr light/dark cycle and fed a standard rodent diet and water ad libitum. SGC-7901 cells were injected subcutaneously into the right flank of each mice at 1 × 10^6 cells in 0.1 mL PBS. Once tumors reached a volume of 100–200 mm^3, mice were randomly divided into 4 groups. These groups included mice treated with 10 mg/kg CA10, mice treated with 20 mg/kg CA10, mice treated 50 mg/kg curcumin, and control mice receiving vehicle alone. All treatments were carried out with intraperitoneal injections. The body weight and tumor volumes were monitored and determined by measuring length (l) and width (w) and calculated as tumor volume (V = 0.5 × l × w2) at the indicated time points. At the end of treatment period, mice were sacrificed and the tumors were removed and weighed for histological analyses and proteins measurement studies.

[8] = system: SGC-7901 xenograft tumors; experiment: In vivo mouse xenograft model, tumor growth; set-up: species or system mice; settings: ip once a day for 12 days, CA10 10 and 20 mg/kg, curcumin 50 mg/kg
From the text: as §3

SMILES: C=CCc1cc(/C=C2\CN(C3CC3)C/C(=C\c3ccc(OC(C)(C)C)cc3)C2=O)ccc1O [CA20]
inhibition of the normal epithelial cells (selective cytotoxicity in cancer cell lines), in words [1]: minimal inhibition
inhibition at 20 µM [1]: 25.8 ± 1.86%
% Of growth inhibition HCT-116 [2]: 73.62 ± 4.23%
inhibition at 20 µM [2]: 70%
inhibition at 20 µM [3]: 61.5 ± 6.1%
inhibition at 20 µM [4]: 71.16 ± 0.6%
inhibition at 20 µM [5]: 56.8 ± 0.81%
inhibition at 20 µM ([6]; SGC-7901, 24 h): > 80%

SMILES: C=CCc1cc(/C=C2\CN(C3CC3)C/C(=C\c3ccc(N(C)C)cc3)C2=O)ccc1O [CA15]
inhibition of the normal epithelial cells (selective cytotoxicity in cancer cell lines), in words [1]: minimal inhibition
inhibition at 20 µM [1]: 23.8 ± 4.79%
% Of growth inhibition HCT-116 [2]: 43.17 ± 8.26%
inhibition at 20 µM [2]: 55%
inhibition at 20 µM [3]: 36.3 ± 1.7%
inhibition at 20 µM [4]: < 60%
inhibition at 20 µM [5]: 50.6 ± 2.49%
inhibition at 20 µM ([6]; SGC-7901, 24 h): 50.5 ± 4.3%

SMILES: C=CCc1cc(/C=C2\CSC/C(=C\c3ccc(O)c(CC=C)c3)C2=O)ccc1O [CA9]
inhibition at 20 µM [1]: > 60%
inhibition at 20 µM [2]: 67.3 ± 5.03%
inhibition at 20 µM [3]: 78 ± 5.69%
inhibition at 20 µM [4]: 75.7 ± 2.18%
inhibition at 20 µM [5]: 69.3 ± 3.13%
inhibition at 20 µM ([6]; SGC-7901, 24 h): > 80%

SMILES: C=CCc1cc(/C=C2\CN(C3CC3)C/C(=C\c3cc(OC)c(OC)cc3OC)C2=O)ccc1O [CA16]
inhibition at 20 µM [1]: 41.3 ± 5.22%
inhibition at 20 µM [2]: 60.1 ± 2.02%
% Of growth inhibition SW-480 [3]: 35.69 ± 5.91%
inhibition at 20 µM [3]: 33.8 to 57%
inhibition at 20 µM [4]: 68 ± 1.39%
inhibition at 20 µM [5]: 60.7 ± 5.64%
inhibition at 20 µM ([6]; SGC-7901, 24 h): 60 ± 7.35%

SMILES: C=CCc1cc(/C=C2\CN(C3CC3)C/C(=C\c3ccc(OC)cc3OC)C2=O)ccc1O [CA19]
inhibition at 20 µM [1]: 62 ± 4.58%
inhibition at 20 µM [2]: 78.1 ± 4.72%
inhibition at 20 µM [3]: 60.4 ± 3.1%
inhibition at 20 µM [4]: 62.6 ± 7.39%
inhibition at 20 µM [5]: 59.2 ± 3.67%
inhibition at 20 µM ([6]; SGC-7901, 24 h): 76.6 ± 5.18%

SMILES: C=CCc1cc(/C=C2\CN(C3CC3)C/C(=C\c3ccc(N4CCN(C)CC4)cc3)C2=O)ccc1O [CA11]
inhibition at 20 µM [1]: 45.56 ± 0.39%
% Of growth inhibition HCT-116 [2]: 52.05 ± 1.91%
inhibition at 20 µM [2]: 55%
inhibition at 20 µM [3]: 49.5 ± 6.47%
inhibition at 20 µM [4]: 63.3 ± 1.31%
inhibition at 20 µM [5]: 61.33 ± 0.48%
inhibition at 20 µM ([6]; SGC-7901, 24 h): 61 ± 4.97%

SMILES: C=CCc1cc(/C=C2\CN(S(=O)(=O)c3ccccc3)C/C(=C\c3ccc(O)c(CC=C)c3)C2=O)ccc1O [CA5]
inhibition at 20 µM [1]: 63.8 ± 2.33%
% Of growth inhibition HCT-116 [2]: 43.04 ± 4.24%
inhibition at 20 µM [2]: 55%
inhibition at 20 µM [3]: 77.1 ± 3.79%
inhibition at 20 µM [4]: 71.2 ± 1.99%
inhibition at 20 µM [5]: 63.3 ± 5.52%
inhibition at 20 µM ([6]; SGC-7901, 24 h): > 80%

SMILES: C=CCc1cc(/C=C2\CCC/C(=C\c3ccc(O)c(CC=C)c3)C2=O)ccc1O [CA7]
inhibition at 20 µM [1]: > 60%
inhibition at 20 µM [2]: 67 ± 4.92%
inhibition at 20 µM [3]: 71.7 ± 1.15%
inhibition at 20 µM [4]: 79.5 ± 4.1%
inhibition at 20 µM [5]: 71.2 ± 3.07%
inhibition at 20 µM ([6]; SGC-7901, 24 h): > 80%

SMILES: C=CCc1cc(/C=C2\CN(C3CC3)C/C(=C\c3ccc(N4CCOCC4)cc3)C2=O)ccc1O [CA12]
inhibition at 20 µM [1]: 40 ± 3.29%
% Of growth inhibition HCT-116 [2]: 70.99 ± 3.12%
inhibition at 20 µM [2]: 70%
inhibition at 20 µM [3]: 33.8 ± 1.98%
inhibition at 20 µM [4]: < 60%
inhibition at 20 µM [5]: 40.1 ± 4.65%
inhibition at 20 µM ([6]; SGC-7901, 24 h): 52.5 ± 5.54%

IC50 ([5]; BGC-823, 24 h): 54.4 ± 3.92 µM
IC50 ([5]; BGC-823, 48 h): 38.2 ± 1.02 µM
IC50 ([6]; SGC-7901, 24 h): 62.2 ± 2.08 µM
IC50 ([6]; SGC-7901, 48 h): 36.9 ± 3.17 µM
SMILES: COc1cc(/C=C/C(=O)CC(=O)/C=C/c2ccc(O)c(OC)c2)ccc1O [curcumin]
body weight of mice [7]: no change
tumor weight and volume [8]: significant reduction

SMILES: C=CCc1cc(/C=C2\CN(C3CC3)C/C(=C\c3ccc(O)c(CC=C)c3)C2=O)ccc1O [CA4]
inhibition at 20 µM [1]: 63.4 ± 2.67%
% Of growth inhibition HCT-116 [2]: 44.18 ± 6.18%
inhibition at 20 µM [2]: 55%
inhibition at 20 µM [3]: 81 ± 5.36%
inhibition at 20 µM [4]: 74.3 ± 0.79%
inhibition at 20 µM [5]: 67.06 ± 0.4%
inhibition at 20 µM ([6]; SGC-7901, 24 h): 77.8 ± 1.98%

SMILES: C=CCc1cc(/C=C2\CN(C3CC3)C/C(=C\c3ccc(N(CC)CC)cc3)C2=O)ccc1O [CA14]
inhibition at 20 µM [1]: 47.9 ± 8.09%
% Of growth inhibition HCT-116 [2]: 52.10 ± 9.05%
inhibition at 20 µM [2]: 55%
inhibition at 20 µM [3]: 57 ± 3.57%
inhibition at 20 µM [4]: < 60%
inhibition at 20 µM [5]: 40.4 ± 5.7%
inhibition at 20 µM ([6]; SGC-7901, 24 h): > 80%

SMILES: C=CCc1cc(/C=C2\CN(C3CC3)C/C(=C\c3c(OC)cc(OC)cc3OC)C2=O)ccc1O [CA18]
inhibition at 20 µM [1]: 57.8 ± 3.58%
inhibition at 20 µM [2]: 74.8 ± 1.25%
% Of growth inhibition SW-480 [3]: 56.88 ± 3.82%
inhibition at 20 µM [4]: 63 ± 4.2%
inhibition at 20 µM [5]: 57.96 ± 0.01%
inhibition at 20 µM ([6]; SGC-7901, 24 h): 61.3 ± 4.02%

SMILES: C=CCc1cc(/C=C2\COC/C(=C\c3ccc(O)c(CC=C)c3)C2=O)ccc1O [CA8]
inhibition at 20 µM [1]: 27 ± 3.4%
% Of growth inhibition HCT-116 [2]: 38.83 ± 4.23%
inhibition at 20 µM [2]: 55%
inhibition at 20 µM [3]: 79.3 ± 4.37%
inhibition at 20 µM [4]: 71.1 ± 2.6%
inhibition at 20 µM [5]: 71.2 ± 1.07%
inhibition at 20 µM ([6]; SGC-7901, 24 h): > 80%

SMILES: C=CCc1cc(/C=C2\CN(CCC)C/C(=C\c3ccc(O)c(CC=C)c3)C2=O)ccc1O [CA2]
inhibition at 20 µM [1]: 60.88 ± 0.41%
inhibition at 20 µM [2]: 60.6 ± 0.98%
inhibition at 20 µM [3]: 76 ± 6.31%
inhibition at 20 µM [4]: 67 ± 6.79%
inhibition at 20 µM [5]: 63 ± 8.7%
inhibition at 20 µM ([6]; SGC-7901, 24 h): 79.8 ± 0.9%

SMILES: C=CCc1cc(/C=C2\CN(CC)C/C(=C\c3ccc(O)c(CC=C)c3)C2=O)ccc1O [CA1]
inhibition of the normal epithelial cells (selective cytotoxicity in cancer cell lines), in words [1]: minimal inhibition
inhibition at 20 µM [1]: 22.8 ± 3.04%
% Of growth inhibition HCT-116 [2]: 50.22 ± 7.62%
inhibition at 20 µM [2]: 55%
inhibition at 20 µM [3]: 71.3 ± 3.35%
inhibition at 20 µM [4]: < 60%
inhibition at 20 µM [5]: 60.4 ± 0.62%
inhibition at 20 µM ([6]; SGC-7901, 24 h): 66.1 ± 8.88%

SMILES: C=CCc1cc(/C=C2\CN(Cc3ccccc3)C/C(=C\c3ccc(O)c(CC=C)c3)C2=O)ccc1O [CA6]
inhibition of the normal epithelial cells (selective cytotoxicity in cancer cell lines), in words [1]: minimal inhibition
inhibition at 20 µM [1]: 22.6 ± 6.08%
% Of growth inhibition HCT-116 [2]: 72.58 ± 2.72%
inhibition at 20 µM [2]: 70%
inhibition at 20 µM [3]: 79.1 ± 4.2%
inhibition at 20 µM [4]: 79.7 ± 3.11%
inhibition at 20 µM [5]: 65.83 ± 0.52%
inhibition at 20 µM ([6]; SGC-7901, 24 h): > 80%

SMILES: C=CCc1cc(/C=C2\CN(C3CC3)C/C(=C\c3ccc(OC)c(OC)c3)C2=O)ccc1O [CA17]
inhibition at 20 µM [1]: 61.9 ± 1.41%
inhibition at 20 µM [2]: 78.1 ± 64%
inhibition at 20 µM [3]: 64.7 ± 4.65%
inhibition at 20 µM [4]: < 60%
inhibition at 20 µM [5]: 37 ± 4.35%
inhibition at 20 µM ([6]; SGC-7901, 24 h): 73.7 ± 1.26%
